# Assay results from US11130769B2 (Prelude Therapeutics Incorporated, priority 2018, dated 2021).
# Columns and labels:
# MCL-1 = MCL-1 (Homo sapiens (Human), UniProt Q07820); experiment: Cell free Mcl-1:Bim affinity assay (fluorescence polarization competition); assay type: binding; conditions: 15 nM MCL-1, 5 nM FITC-Bim, 1 hour at room temperature; class symbols; read-out: BIM_Ki
# Outline: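 Fluorescence polarization competition: 10-point 3-fold compound dilutions displaced 5 nM FITC-Bim from 15 nM MCL-1 over 1 h at room temperature. Ki was derived from the fitted IC50 using the Nikolovska-Coleska equation, with percent inhibition normalized to DMSO and positive controls.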
# H929 cells = experiment: Cell viability assay (H929 10 FBS); assay type: cell-based; conditions: Homo sapiens, NCI-H929, 24 hours, read-out: H929_10FBS IC50
# Outline: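 ATP-based luminescence (CellTiter-Glo or ATPlite 1 Step, 30-60 min at RT) gauged viability of H929 myeloma cells after 24 h compound treatment at 37 °C. Cells plated at 4000 per well in 10% FBS RPMI 1640 supplemented with pyruvate, HEPES and glucose.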
# Sequence of MCL-1 (Q07820 whole entry): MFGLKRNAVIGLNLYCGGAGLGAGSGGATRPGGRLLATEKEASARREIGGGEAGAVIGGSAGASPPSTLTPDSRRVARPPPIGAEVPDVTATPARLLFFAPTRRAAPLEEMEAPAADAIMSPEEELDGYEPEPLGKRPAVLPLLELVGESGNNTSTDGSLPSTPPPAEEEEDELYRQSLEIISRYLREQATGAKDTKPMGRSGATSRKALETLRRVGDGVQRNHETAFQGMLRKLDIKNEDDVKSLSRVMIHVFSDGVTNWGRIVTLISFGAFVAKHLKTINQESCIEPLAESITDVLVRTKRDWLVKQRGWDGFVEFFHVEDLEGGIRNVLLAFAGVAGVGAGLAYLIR
smiles,measurement,setting,value
"CC1(C)OC/C=C/[C@H](OC(=O)N2CCOCC2)[C@@H]2CC[C@H]2CN2C[C@@]3(CCOc4cc(Cl)ccc43)COc3ccc(cc32)S(=O)(=O)NC1=O [Example 248, [(3R,6R,7S,8E,22S)-7′-Chloro-12,12-dimethyl-13,15,15-trioxo-spiro[11,20-dioxa-15-thia-1,14-diazatetracyclo[14.7.2.03,6.019,24]pentacosa-8,16,18,24-tetraene-22,4′-chromane]-7-yl]morpholine-4-carboxylate]",Ki,MCL-1,< 1 nM
same,IC50,H929 cells,> 1000 nM
"CN1C/C=C/[C@H](OCCN2CC(F)(F)C2)[C@@H]2CC[C@H]2CN2C[C@@]3(CCCc4cc(Cl)ccc43)COc3ccc(cc32)S(=O)(=O)NC(=O)C1(C)C [Example 287, (3R,6R,7S,8E,22S)-6′-Chloro-7-[2-(3,3-difluoroazetidin-1-yl)ethoxy]-11,12,12-trimethyl-15,15-dioxo-spiro[20-oxa-15-thia-1,11,14-triazatetracyclo[14.7.2.03,6.019,24]pentacosa-8,16,18,24-tetraene-22,1′-tetralin]-13-one]",Ki,MCL-1,< 1 nM
same,IC50,H929 cells,< 500 nM
"CO[C@@H]1/C=C/C[C@H](C)[C@@H](CC(=O)N2CC(F)(F)C2)C(=O)NS(=O)(=O)c2ccc3c(c2)N(C[C@@H]2CC[C@H]21)C[C@@]1(CCCc2cc(Cl)ccc21)CO3 [Example 90, (3R,6R,7R,8E,11S,12R,22S)-6′-Chloro-12-[2-(3,3-difluoroazetidin-1-yl)-2-oxo-ethyl]-7-methoxy-11-methyl-15,15-dioxo-spiro[20-oxa-15-thia-1,14-diazatetracyclo[14.7.2.03,6.019,24]pentacosa-8,16,18,24-tetraene-22,1′-tetralin]-13-one]",Ki,MCL-1,< 1 nM
same,IC50,H929 cells,> 1000 nM
"CO[C@@H]1CCN(C(=O)O[C@H]2/C=C/COC(C)(C)C(=O)NS(=O)(=O)c3ccc4c(c3)N(C[C@@H]3CC[C@H]32)C[C@@]2(CCOc3cc(Cl)ccc32)CO4)C1 [Example 266, [(3R,6R,7S,8E,22S)-7′-Chloro-12,12-dimethyl-13,155-trioxo-spiro[11,20-dioxa-15-thia-1,14-diazatetracyclo[14.7.2.03,6.019,24]pentacosa-8,16,18,24-tetraene-22,4′-chromane]-7-yl] (3R)-3-methoxypyrrolidine-1-carboxylate]",Ki,MCL-1,< 1 nM
same,IC50,H929 cells,< 500 nM
"CO[C@H]1/C=C/COC2(CC2)C(=O)NS(=O)(=O)c2ccc3c(c2)N(C[C@@H]2CC[C@H]21)C[C@@]1(CCCc2cc(Cl)ccc21)CO3 [Example 28, (3R,6R,7S,8E,22S)-6′-Chloro-7-methoxy-12,12-ethylene-15,15-dioxo-spiro[[11,20]dioxa-15-thia-1,14-diazatetracyclo[14.7.2.03,6.019,24]pentacosa[8,16(25),17,19(24)]tetraene-22,1′-tetralin]-13-one]",Ki,MCL-1,< 1 nM
same,IC50,H929 cells,> 1000 nM
"O=C1N[C@@H]2CCN(C2)C(=O)NS(=O)(=O)c2ccc3c(c2)N(C[C@@H]2CC[C@H]2CO1)C[C@@]1(CCCc2cc(Cl)ccc21)CO3 [Example 102, (3R,6R,11R,24S)-6′-Chloro-17,17-dioxo-spiro[8,22-dioxa-17-thia-1,10,14,16-tetrazapentacyclo[16.7.2.111,14.03,6.021,26]octacosa-18(27),19,21(26)-triene-24,1′-tetralin]-9,15-dione]",Ki,MCL-1,1 to 100 nM
same,IC50,H929 cells,> 1000 nM
"CN(C)C(=O)CO[C@@H]1/C=C/COC2(CC2)C(=O)NS(=O)(=O)c2ccc3c(c2)N(C[C@@H]2CC[C@H]21)C[C@@]1(CCCc2cc(Cl)ccc21)CO3 [Example 143, 2-[(3R,6R,7R,8E,22S)-6′-Chloro-12,12-ethylene-13,15,15-trioxo-spiro[11,20-dioxa-15-thia-1,14-diazatetracyclo[14.7.2.03,6.019,24]pentacosa-8,16,18,24-tetraene-22,1′-tetralin]-7-yl]oxy-N,N-dimethyl-acetamide]",Ki,MCL-1,< 1 nM
same,IC50,H929 cells,< 500 nM
"CO[C@@H]1/C=C/CN[C@@H](C(C)C)C(=O)NS(=O)(=O)c2ccc3c(c2)N(C[C@@H]2CC[C@H]21)C[C@@]1(CCCc2cc(Cl)ccc21)CO3 [Example 128, (3R,6R,7R,8E,12S,22S)-6′-Chloro-7-methoxy-12-isopropyl-15,15-dioxo-spiro[20-oxa-15-thia-1,11,14-triazatetracyclo[14.7.2.03,6.019,24]pentacosa-8,16,18,24-tetraene-22,1′-tetralin]-13-one]",Ki,MCL-1,1 to 100 nM
same,IC50,H929 cells,> 1000 nM
"CN(C(=O)O[C@H]1/C=C/CN(C)C2(CCC2)C(=O)NS(=O)(=O)c2ccc3c(c2)N(C[C@@H]2CC[C@H]21)C[C@@]1(CCCc2cc(Cl)ccc21)CO3)[C@@H]1CCOC1 [Example 242, [(3R,6R,7S,8E,22S)-6′-Chloro-11-methyl-12,12-(1,3-propylene)-13,15,15-trioxo-spiro[20-oxa-15-thia-1,11,14-triazatetracyclo[14.7.2.03,6.019,24]pentacosa-8,16,18,24-tetraene-22,1′-tetralin]-7-yl] N-methyl-N-[(3R)-tetrahydrofuran-3-yl]carbamate]",Ki,MCL-1,< 1 nM
same,IC50,H929 cells,< 500 nM
"CNCCN(C)C(=O)O[C@H]1/C=C/COC(C)(C)C(=O)NS(=O)(=O)c2ccc3c(c2)N(C[C@@H]2CC[C@H]21)C[C@@]1(CCCc2cc(Cl)ccc21)CO3 [Example 194, [(3R,6R,7S,8E,22S)-6′-Chloro-12,12-dimethyl-13,15,15-trioxo-spiro[11,20-dioxa-15-thia-1,14-diazatetracyclo[14.7.2.03,6.019,24]pentacosa-8,16,18,24-tetraene-22,1′-tetralin]-7-yl] N-methyl-N-[2-(methylamino)ethyl]carbamate]",Ki,MCL-1,< 1 nM
same,IC50,H929 cells,< 500 nM
"CO[C@@H]1CCN(CCO[C@H]2/C=C/COC(C)(C)C(=O)NS(=O)(=O)c3ccc4c(c3)N(C[C@@H]3CC[C@H]32)C[C@@]2(CCCc3cc(Cl)ccc32)CO4)C1 [Example 260, (3R,6R,7S,8E,22S)-6′-Chloro-7-[2-[(3R)-3-methoxypyrrolidin-1-yl]ethoxy]-12,12-dimethyl-15,15-dioxo-spiro[11,20-dioxa-15-thia-1,14-diazatetracyclo[14.7.2.03,6.019,24]pentacosa-8,16,18,24-tetraene-22,1′-tetralin]-13-one]",Ki,MCL-1,< 1 nM
same,IC50,H929 cells,< 500 nM
"CC1(C)OC/C=C/[C@@H](OCCN2CC(F)(F)C2)[C@@H]2CC[C@H]2CN2C[C@@]3(CCCc4cc(Cl)ccc43)COc3ccc(cc32)S(=O)(=O)NC1=O [Example 272, (3R,6R,7R,8E,22S)-6′-Chloro-7-[2-(3,3-difluoroazetidin-1-yl)ethoxy]-12,12-dimethyl-15,15-dioxo-spiro[11,20-dioxa-15-thia-1,14-diazatetracyclo[14.7.2.03,6.019,24]pentacosa-8,16,18,24-tetraene-22,1′-tetralin]-13-one]",Ki,MCL-1,< 1 nM
same,IC50,H929 cells,< 500 nM
"CN1C/C=C/[C@H](OC(=O)NC2CCC2)[C@@H]2CC[C@H]2CN2C[C@@]3(CCCc4cc(Cl)ccc43)COc3ccc(cc32)S(=O)(=O)NC(=O)C1(C)C [Example 201, [(3R,6R,7S,8E,22S)-6′-Chloro-11,12,12-trimethyl-13,15,15-trioxo-spiro[20-oxa-15-thia-1,11,14-triazatetracyclo[14.7.2.03,6.019,24]pentacosa-8,16,18,24-tetraene-22,1′-tetralin]-7-yl] N-cyclobutylcarbamate]",Ki,MCL-1,< 1 nM
same,IC50,H929 cells,< 500 nM
"CCOC1CN(C(=O)O[C@H]2/C=C/COC3(CCC3)C(=O)NS(=O)(=O)c3ccc4c(c3)N(C[C@@H]3CC[C@H]32)C[C@@]2(CCCc3cc(Cl)ccc32)CO4)C1 [Example 230, [(3R,6R,7S,8E,22S)-6′-Chloro-12,12-(1,3-propylene)-13,15,15-trioxo-spiro[11,20-dioxa-15-thia-1,14-diazatetracyclo[14.7.2.03,6.019,24]pentacosa-8,16(25),17,19(24)-tetraene-22,1′-tetralin]-7-yl]-N,N-1,3-(2-ethoxy)propylene carbamate]",Ki,MCL-1,< 1 nM
same,IC50,H929 cells,< 500 nM
"CN(C)C(=O)O[C@@H]1/C=C/CN(C)C(C)(C)C(=O)NS(=O)(=O)c2ccc3c(c2)N(C[C@@H]2CC[C@H]21)C[C@@]1(CCCc2cc(Cl)ccc21)CO3 [Example 200, [(3R,6R,7R,8E,22S)-6′-Chloro-11,12,12-trimethyl-13,15,15-trioxo-spiro[20-oxa-15-thia-1,11,14-triazatetracyclo[14.7.2.03,6.019,24]pentacosa-8,16,18,24-tetraene-22,1′-tetralin]-7-yl] N,N-dimethylcarbamate]",Ki,MCL-1,1 to 100 nM
same,IC50,H929 cells,< 500 nM
"CC1(C)OC/C=C/[C@H](OCCN2CC[C@@H](F)C2)[C@@H]2CC[C@H]2CN2C[C@@]3(CCCc4cc(Cl)ccc43)COc3ccc(cc32)S(=O)(=O)NC1=O [Example 264, (3R,6R,7S,8E,22S)-6′-Chloro-7-[2-[(3R)-3-fluoropyrrolidin-1-yl]ethoxy]-12,12-dimethyl-15,15-dioxo-spiro[11,20-dioxa-15-thia-1,14-diazatetracyclo[14.7.2.03,6.019,24]pentacosa-8,16,18,24-tetraene-22,1′-tetralin]-13-one]",Ki,MCL-1,< 1 nM
same,IC50,H929 cells,< 500 nM
"CC1(C)OC/C=C/[C@H](OC(=O)NCCN2CCCCC2)[C@@H]2CC[C@H]2CN2C[C@@]3(CCCc4cc(Cl)ccc43)COc3ccc(cc32)S(=O)(=O)NC1=O [Example 193, [(3R,6R,7S,8E,22S)-6′-Chloro-12,12-dimethyl-13,15,15-trioxo-spiro[11,20-dioxa-15-thia-1,14-diazatetracyclo[14.7.2.03,6.019,24]pentacosa-8,16,18,24-tetraene-22,1′-tetralin]-7-yl] N-[2-(1-piperidyl)ethyl]carbamate]",Ki,MCL-1,1 to 100 nM
same,IC50,H929 cells,< 500 nM
